Laboratory results taken from US7365095B2, “Chromane and chromene derivatives and uses thereof” (Wyeth, priority 2005, dated 2008).
Where a name gives a salt, the structure may show the parent alone. Read-outs that look alike come from different tables or passages of the source.

Tests used:
[1] = target: T1, human 5-hydroxytryptamine-2C (h5-HT2C) receptor (Homo sapiens, UniProt P28335); experiment: [125I]DOI binding to membranes of CHO cells expressing h5-HT2C receptor
T1 construct: expressed in transfected cells; host or cells: CHO (Chinese Hamster Ovary) cells; membrane preparation
T1 sequence (P28335 33-458): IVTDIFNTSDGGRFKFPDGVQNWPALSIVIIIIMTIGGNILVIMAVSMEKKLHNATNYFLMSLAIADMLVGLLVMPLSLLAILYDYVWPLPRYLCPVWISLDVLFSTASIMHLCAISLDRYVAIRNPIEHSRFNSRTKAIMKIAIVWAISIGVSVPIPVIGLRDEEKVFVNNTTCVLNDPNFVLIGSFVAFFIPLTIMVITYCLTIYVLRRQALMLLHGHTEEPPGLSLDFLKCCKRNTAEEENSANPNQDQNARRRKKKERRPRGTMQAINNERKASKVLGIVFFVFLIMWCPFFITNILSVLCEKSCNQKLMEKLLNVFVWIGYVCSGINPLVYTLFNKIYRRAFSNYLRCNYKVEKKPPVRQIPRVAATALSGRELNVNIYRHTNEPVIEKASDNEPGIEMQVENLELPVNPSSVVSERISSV

human 5-HT2C receptor = target: T2, human 5-HT2C receptor (Homo sapiens, UniProt P28335); experiment: calcium mobilization (FLIPR) in CHO cells stably expressing the human 5-HT2C receptor; format: cell-based; details: for Emax: CHO, read-out: 5-HT2C Function EMax (%); for EC50: calcium mobilization, read-out: 5-HT2C Function EC50
T2 sequence (P28335 33-458): T1 sequence (P28335 33-458)

[2] = read-out: 5-HT2C Binding Ki avg

Structure (SMILES) | Ki [1, 2] | Emax (human 5-HT2C receptor) | EC50 (human 5-HT2C receptor) | Kd ([1]; saturation binding with increasing concentrations of [125I] DOI, read-out: dissociation constant, KD) | Ki ([1]; reference compounds, 95% confidence interval in brackets, [125I]DOI displacement, read-out: Ki)
CNC[C@H]1CCc2cccc(-c3ccc(Cl)cc3Cl)c2O1 [Compound 4, {[(2R)-8-(2,4-dichlorophenyl)-3,4-dihydro-2H-chromen-2-yl]methyl}methylamine hydrochloride] | > 50 nM | 80% | < 50 nM |  | 
CNC[C@H]1C=Cc2cccc(-c3c(Cl)cccc3Cl)c2O1 [Compound 59, {[(2R)-8-(2,6-dichlorophenyl)-2H-chromen-2-yl]methyl}methylamine hydrochloride] | ≤ 10 nM | 90% | < 50 nM |  | 
CNC[C@H]1CCc2cccc(-c3cccnc3)c2O1 [Compound 9, N-methyl-N-{[(2R)-8-pyridin-3-yl-3,4-dihydro-2H-chromen-2-yl]methyl}amine hydrochloride] | ≤ 10 nM | 100% | < 50 nM |  | 
CNC[C@@H]1CCc2cccc(-c3ccc(Cl)cc3Cl)c2O1 [Compound 21, {[(2S)-8-(2,4-dichlorophenyl)-3,4-dihydro-2H-chromen-2-yl]methyl}methylamine hydrochloride] | > 50 nM | 80% | 50 to 200 nM |  | 
CNC[C@H]1CCc2cccc(-c3ccccc3Cl)c2O1 [Compound 10, N-{[(2R)-8-(2-chlorophenyl)-3,4-dihydro-2H-chromen-2-yl]methyl}-N-methylamine hydrochloride] | ≤ 10 nM | 100% | < 50 nM |  | 
NC[C@@H]1CCc2cc(F)cc(-c3cc(Cl)ccc3Cl)c2O1 [Compound 55, {[(2S)-8-(2,5-dichlorophenyl)-6-fluoro-3,4-dihydro-2H-chromen-2-yl]methyl}amine hydrochloride] | ≤ 10 nM | 70% | 50 to 200 nM |  | 
CNC[C@@H]1CCc2cccc(-c3ccccc3OC)c2O1 [Compound 23, {[(2S)-8-(2-methoxyphenyl)-3,4-dihydro-2H-chromen-2-yl]methyl}methylamine hydrochloride] | > 50 nM |  |  |  | 
COc1ccccc1-c1cc(F)cc2c1O[C@@H](CN)CC2 [Compound 38, 1-[(2R)-6-fluoro-8-(2-methoxyphenyl)-3,4-dihydro-2H-chromen-2-yl]methanamine hydrochloride] | ≤ 10 nM | 80% | < 50 nM |  | 
Cc1ccccc1-c1cccc2c1O[C@H](CN)CC2 [Compound 33, {[(2S)-8-(2-methylphenyl)-3,4-dihydro-2H-chromen-2-yl]methyl}amine hydrochloride] | 10 to 50 nM | 80% | > 200 nM |  | 
CNC[C@H]1CCc2cc(F)cc(-c3ccc(Cl)cc3Cl)c2O1 [Compound 41, {[(2R)-8-(2,4-dichlorophenyl)-6-fluoro-3,4-dihydro-2H-chromen-2-yl]methyl}methylamine hydrochloride] | 10 to 50 nM | 90% | 50 to 200 nM |  | 
CNC[C@@H]1CCc2cccc(-c3cc(Cl)ccc3Cl)c2O1 [Compound 20, {[(2S)-8-(2,5-dichlorophenyl)-3,4-dihydro-2H-chromen-2-yl]methyl}methylamine hydrochloride] | ≤ 10 nM | 90% | < 50 nM |  | 
COc1cc(CC(C)N)c(OC)cc1I (stereo not shown) [[^125I] DOI, reference compound] |  |  |  | 0.4 nM | 
NC[C@@H]1CCc2cccc(-c3ccccc3)c2O1 [Compound 30, {[(2S)-8-phenyl-3,4-dihydro-2H-chromen-2-yl]methyl}amine hydrochloride] | > 50 nM |  |  |  | 
CNC[C@H]1CCc2cccc(-c3ccccc3C)c2O1 [Compound 8, N-methyl-N-{[(2R)-8-(2-methylphenyl)-3,4-dihydro-2H-chromen-2-yl]methyl}amine hydrochloride] | ≤ 10 nM | 100% | < 50 nM |  | 
NC[C@H]1CCc2cccc(-c3ccccc3Cl)c2O1 [Compound 11, {[(2R)-8-(2-chlorophenyl)-3,4-dihydro-2H-chromen-2-yl]methyl}amine hydrochloride] | ≤ 10 nM | 100% | < 50 nM |  | 
NC[C@H]1CCc2cc(F)cc(-c3ccccc3Cl)c2O1 [Compound 45, {[(2R)-8-(2-chlorophenyl)-6-fluoro-3,4-dihydro-2H-chromen-2-yl]methyl}amine hydrochloride] | ≤ 10 nM | 90% | < 50 nM |  | 
NC[C@@H]1CCc2cc(F)cc(-c3ccc(Cl)cc3Cl)c2O1 [Compound 56, {[(2S)-8-(2,4-dichlorophenyl)-6-fluoro-3,4-dihydro-2H-chromen-2-yl]methyl}amine hydrochloride] | 10 to 50 nM | 80% | 50 to 200 nM |  | 
CNCC1CCc2cccc(-c3ccccc3Cl)c2O1 (stereo not shown) [Compound 1, N-{[8-(2-chlorophenyl)-3,4-dihydro-2H-chromen-2-yl]methyl}-N-methylamine hydrochloride] | 10 to 50 nM | 80% | < 50 nM |  | 
COc1ccc(-c2cccc3c2O[C@H](CN)CC3)c(OC)c1 [Compound 32, {[(2S)-8-(2,4-dimethoxyphenyl)-3,4-dihydro-2H-chromen-2-yl]methyl}amine hydrochloride] | 10 to 50 nM | 90% | 50 to 200 nM |  | 
Cc1ccccc1-c1c(Cl)ccc2c1O[C@@H](CN)CC2 [Compound 69, ((2R)-7-Chloro-8-o-tolylchroman-2-yl)methanamine hydrochloride] | ≤ 10 nM |  |  |  | 
NC[C@@H]1CCc2cccc(-c3cccnc3)c2O1 [Compound 34, {[(2S)-8-pyridin-3-yl-3,4-dihydro-2H-chromen-2-yl]methyl}amine hydrochloride] | > 50 nM |  |  |  | 
NC[C@@H]1CCc2cc(F)cc(-c3cccnc3)c2O1 [Compound 54, {[(2S)-6-fluoro-8-pyridin-3-yl-3,4-dihydro-2H-chromen-2-yl]methyl}amine hydrochloride] | > 50 nM |  |  |  | 
NC[C@@H]1CCc2cc(F)cc(-c3ccccc3)c2O1 [Compound 52, {[(2S)-6-fluoro-8-phenyl-3,4-dihydro-2H-chromen-2-yl]methyl}amine hydrochloride] | > 50 nM |  |  |  | 
Cc1cc(Cl)ccc1-c1c(F)ccc2c1O[C@@H](CN)CC2 [Compound 72, ((2R)-8-(4-Chloro-2-methylphenyl)-7-fluorochroman-2-yl)methanamine hydrochloride] | ≤ 10 nM |  |  |  | 
CNC[C@@H]1CCc2cccc(-c3cccnc3)c2O1 [Compound 26, N-methyl-1-[(2S)-8-pyridin-3-yl-3,4-dihydro-2H-chromen-2-yl]methanamine hydrochloride] | > 50 nM |  |  |  | 
COc1ccccc1-c1cccc2c1O[C@H](CN)CC2 [Compound 31, {[(2S)-8-(2-methoxyphenyl)-3,4-dihydro-2H-chromen-2-yl]methyl}amine hydrochloride] | > 50 nM |  |  |  | 
CSc1ccc2c(c1)C(N1CCN(C)CC1)Cc1ccccc1S2 (stereo not shown) [Methiothepin, reference compound] |  |  |  |  | 4.6 nM
NC[C@H]1CCc2ccc(F)c(-c3ccccc3Cl)c2O1 [Compound 71, ((2R)-8-(2-chlorophenyl)-7-fluorochroman-2-yl)methanamine hydrochloride] | ≤ 10 nM |  |  |  | 
CNC[C@@H]1CCc2cccc(-c3ccccc3)c2O1 [Compound 22, N-methyl-1-[(2S)-8-phenyl-3,4-dihydro-2H-chromen-2-yl]methanamine hydrochloride] | > 50 nM |  |  |  | 
